ChEMBL document CHEMBL3352762 (J Med Chem, 2014)
One block for each compound: values may come before it. The source made the active and inactive calls. The rule behind the calls is not given here. Peptide text beside a SMILES is read from it.

Key:
[1] = target: T1, Urotensin-2 receptor (Rattus norvegicus, UniProt P49684); assay: (§1) Agonist activity at UT receptor in rat aorta assessed as contraction; type: tissue-based
T1 sequence (P49684 whole entry): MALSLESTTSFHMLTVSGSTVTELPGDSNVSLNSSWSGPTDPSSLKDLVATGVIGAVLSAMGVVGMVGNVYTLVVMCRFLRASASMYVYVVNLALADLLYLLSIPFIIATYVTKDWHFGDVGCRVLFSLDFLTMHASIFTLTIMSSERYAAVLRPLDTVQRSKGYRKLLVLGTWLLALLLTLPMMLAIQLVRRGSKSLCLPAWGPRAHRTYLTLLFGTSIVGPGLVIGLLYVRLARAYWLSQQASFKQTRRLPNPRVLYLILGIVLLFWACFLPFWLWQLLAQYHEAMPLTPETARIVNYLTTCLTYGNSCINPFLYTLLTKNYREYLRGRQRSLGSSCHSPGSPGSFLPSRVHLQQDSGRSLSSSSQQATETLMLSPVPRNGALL

[2] = Stability in 25% fetal calf serum assessed as parent compound remaining at 80 uM at 37 degC after 16 hrs by RP-HPLC-UV based detection assay; type: ADME, Bos taurus; conditions: cattle, read-out: Stability
[3] = target: T2, Urotensin-2 receptor (Homo sapiens, UniProt Q9UKP6); assay: Displacement of [125I]urotensin-2 from human recombinant UT receptor expressed in CHO-K1 cells by scintillation counting method; type: cell-based
T2 sequence (Q9UKP6 whole entry): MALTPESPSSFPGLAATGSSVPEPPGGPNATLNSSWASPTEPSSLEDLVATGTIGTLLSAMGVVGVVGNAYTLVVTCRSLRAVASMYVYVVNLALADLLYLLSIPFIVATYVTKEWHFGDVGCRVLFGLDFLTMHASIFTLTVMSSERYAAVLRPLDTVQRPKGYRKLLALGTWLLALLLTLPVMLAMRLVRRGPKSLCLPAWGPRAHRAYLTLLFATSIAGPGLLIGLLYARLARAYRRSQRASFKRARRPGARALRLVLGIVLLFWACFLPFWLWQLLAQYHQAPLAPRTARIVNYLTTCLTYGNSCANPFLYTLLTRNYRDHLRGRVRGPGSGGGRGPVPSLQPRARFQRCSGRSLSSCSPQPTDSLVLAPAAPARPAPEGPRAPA

[4] = target: T3, Urotensin-2 receptor (Rattus norvegicus) (UniProt P49684); assay: Agonist activity at UT receptor in rat aorta assessed as contraction relative to urotensin-2; type: tissue-based
T3 sequence (whole entry): T1 sequence (P49684 whole entry)

[5] = Stability in 25% fetal calf serum assessed as parent compound remaining at 80 uM at 37 degC after 36 hrs by RP-HPLC-UV based detection assay; type: ADME, Bos taurus; conditions: cattle, read-out: Stability
[6] = target: T3, Urotensin-2 receptor (Rattus norvegicus); assay: Competitive antagonist activity at UT receptor in rat aorta assessed as effect on urotensin-2-induced contraction; type: tissue-based
[7] = target: T4, Urotensin-2 receptor (Homo sapiens) (UniProt Q9UKP6); assay: Partial agonist activity at human recombinant UT receptor expressed in CHO-K1 cells assessed as stimulation of intracellular calcium mobilization at 10 uM by FLIPR assay relative to urotensin-2; type: functional, cell-based
T4 sequence (whole entry): T2 sequence (Q9UKP6 whole entry)

[8] = target: T4, Urotensin-2 receptor (Homo sapiens); assay: Partial agonist activity at human recombinant UT receptor expressed in CHO-K1 cells assessed as stimulation of intracellular calcium mobilization at 1 uM by FLIPR assay relative to urotensin-2; type: functional, cell-based
[9] = target: T3, Urotensin-2 receptor (Rattus norvegicus); assay: as §1; type: tissue-based
[10] = target: T4, Urotensin-2 receptor (Homo sapiens); assay: Partial agonist activity at human recombinant UT receptor expressed in CHO-K1 cells assessed as stimulation of intracellular calcium mobilization by FLIPR assay; type: functional, cell-based

Structure (SMILES): CC(C)[C@H](NC(=O)[C@@H]1CSSC(C)(C)[C@H](NC(=O)[C@@H](N)CC(=O)O)C(=O)N[C@@H](Cc2ccccc2)C(=O)N[C@@H](Cc2c[nH]c3ccccc23)C(=O)N[C@@H](CCCCN)C(=O)N[C@@H](Cc2ccc([N+](=O)[O-])cc2)C(=O)N1)C(=O)O (HELM PEPTIDE1{D.[Pen].F.W.K.[O=C([C@H](Cc1ccc([N+](=O)[O-])cc1)N[*:1])[*:2]].C.V}$PEPTIDE1,PEPTIDE1,2:R3-7:R3$$$V2.0)
EC50 [1]: 0.631 nM
Ki [3]: 1.78 nM
Emax [4]: 95%

Structure (SMILES): CC(C)[C@H](NC(=O)[C@@H]1CSSC[C@H](NC(=O)[C@@H](N)CC(=O)O)C(=O)N[C@@H](Cc2ccccc2)C(=O)N[C@@H](Cc2c[nH]c3ccccc23)C(=O)N[C@@H](CCCCN)C(=O)N[C@@H](Cc2ccc(O)cc2)C(=O)N1)C(=O)O (HELM PEPTIDE1{D.C.F.W.K.Y.C.V}$PEPTIDE1,PEPTIDE1,2:R3-7:R3$$$V2.0)
EC50 [1]: 3.63 nM
remaining at 16 h, 80 µM [2]: < 50%
Ki [3]: 0.251 nM
Emax [4]: 100%

Structure (SMILES): CC(C)[C@H](NC(=O)[C@@H]1CSSC(C)(C)[C@H](NC(=O)[C@@H](N)CC(=O)O)C(=O)N[C@@H](Cc2ccccc2)C(=O)N[C@@H](Cc2c[nH]c3ccccc23)C(=O)N[C@@H](CCCCN)C(=O)N[C@@H](Cc2cccc3ccccc23)C(=O)N1)C(=O)O (HELM PEPTIDE1{D.[Pen].F.W.K.[O=C([C@H](Cc1cccc2ccccc12)N[*:1])[*:2]].C.V}$PEPTIDE1,PEPTIDE1,2:R3-7:R3$$$V2.0)
EC50 [1]: 5.01 nM
Ki [3]: 0.398 nM
Emax [4]: 86%

Structure (SMILES): CC(C)[C@H](NC(=O)[C@@H]1CSSC(C)(C)[C@H](NC(=O)[C@@H](N)CC(=O)O)C(=O)N[C@@H](Cc2ccccc2)C(=O)N[C@H](Cc2c[nH]c3ccccc23)C(=O)N[C@@H](CCCN)C(=O)N[C@@H](Cc2ccc([N+](=O)[O-])cc2)C(=O)N1)C(=O)O
pKb [6]: 8.12
Efficacy [7]: 61.2%
Efficacy [8]: 56.5%
pEC50 [9]: inactive
Ki [3]: 17 nM
Emax [4]: 0%
Activity [10]: Active

Structure (SMILES): CC(C)[C@H](NC(=O)[C@@H]1CSSC(C)(C)[C@H](NC(=O)[C@@H](N)CC(=O)O)C(=O)N[C@@H](Cc2ccccc2)C(=O)N[C@@H](Cc2c[nH]c3ccccc23)C(=O)N[C@@H](CCCCN)C(=O)N[C@@H](Cc2ccc(Cl)cc2)C(=O)N1)C(=O)O (HELM PEPTIDE1{D.[Pen].F.W.K.[O=C([C@H](Cc1ccc(Cl)cc1)N[*:1])[*:2]].C.V}$PEPTIDE1,PEPTIDE1,2:R3-7:R3$$$V2.0)
EC50 [1]: 0.813 nM
Ki [3]: 1.23 nM
Emax [4]: 85%

Structure (SMILES): CC(C)[C@H](NC(=O)[C@@H]1CSSC(C)(C)[C@H](NC(=O)[C@@H](N)CC(=O)O)C(=O)N[C@@H](Cc2ccccc2)C(=O)N[C@H](Cc2c[nH]c3ccccc23)C(=O)N[C@@H](CCCN)C(=O)N[C@@H](Cc2nc3ccccc3s2)C(=O)N1)C(=O)O
EC50 [1]: 33.9 nM
Ki [3]: 12.9 nM
Emax [4]: 57%

Structure (SMILES): CC(C)[C@H](NC(=O)[C@@H]1CSSC(C)(C)[C@H](NC(=O)[C@@H](N)CC(=O)O)C(=O)N[C@@H](Cc2ccccc2)C(=O)N[C@@H](Cc2c[nH]c3ccccc23)C(=O)N[C@@H](CCCCN)C(=O)N[C@@H](Cc2ccc(C#N)cc2)C(=O)N1)C(=O)O (HELM PEPTIDE1{D.[Pen].F.W.K.[N#Cc1ccc(C[C@H](N[*:1])C(=O)[*:2])cc1].C.V}$PEPTIDE1,PEPTIDE1,2:R3-7:R3$$$V2.0)
EC50 [1]: 1.07 nM
Ki [3]: 1.82 nM
Emax [4]: 79%

Structure (SMILES): CC(C)[C@H](NC(=O)[C@@H]1CSSC[C@H](NC(=O)[C@H](CC(=O)O)NC(=O)[C@@H]2CCCN2C(=O)[C@@H](NC(=O)[C@@H](N)CCC(=O)O)[C@@H](C)O)C(=O)N[C@@H](Cc2ccccc2)C(=O)N[C@@H](Cc2c[nH]c3ccccc23)C(=O)N[C@@H](CCCCN)C(=O)N[C@@H](Cc2ccc(O)cc2)C(=O)N1)C(=O)O [UROTENSIN-II]
EC50 [1]: 3.16 nM
Emax [4]: 100%

Structure (SMILES): CC(C)[C@H](NC(=O)[C@@H]1CSSC(C)(C)[C@H](NC(=O)[C@@H](N)CC(=O)O)C(=O)N[C@@H](Cc2ccccc2)C(=O)N[C@H](Cc2c[nH]c3ccccc23)C(=O)N[C@@H](CCCN)C(=O)N[C@@H](Cc2cccc3ccccc23)C(=O)N1)C(=O)O
EC50 [1]: 18.2 nM
Ki [3]: 6.46 nM
Emax [4]: 37%

Continued, values first:

EC50 [1]: 0.398 nM
remaining at 16 h, 80 µM [2]: 65%
Ki [3]: 0.2 nM
Emax [4]: 95%
remaining at 36 h, 80 µM [5]: 45%
Structure (SMILES): CC(C)[C@H](NC(=O)[C@@H]1CSSC(C)(C)[C@H](NC(=O)[C@@H](N)CC(=O)O)C(=O)N[C@@H](Cc2ccccc2)C(=O)N[C@@H](Cc2c[nH]c3ccccc23)C(=O)N[C@@H](CCCCN)C(=O)N[C@@H](Cc2ccc(O)cc2)C(=O)N1)C(=O)O (HELM PEPTIDE1{D.[Pen].F.W.K.Y.C.V}$PEPTIDE1,PEPTIDE1,2:R3-7:R3$$$V2.0)

EC50 [1]: 3.8 nM
Ki [3]: 0.724 nM
Emax [4]: 13%
Structure (SMILES): CC(C)[C@H](NC(=O)[C@@H]1CSSC(C)(C)[C@H](NC(=O)[C@@H](N)CC(=O)O)C(=O)N[C@@H](Cc2ccccc2)C(=O)N[C@H](Cc2c[nH]c3ccccc23)C(=O)N[C@@H](CCCN)C(=O)N[C@@H](Cc2ccc3ccccc3c2)C(=O)N1)C(=O)O

EC50 [1]: 0.0195 nM
Ki [3]: 1.74 nM
Emax [4]: 89%
Structure (SMILES): CC(C)[C@H](NC(=O)[C@@H]1CSSC(C)(C)[C@H](NC(=O)[C@@H](N)CC(=O)O)C(=O)N[C@@H](Cc2ccccc2)C(=O)N[C@@H](Cc2c[nH]c3ccccc23)C(=O)N[C@@H](CCCCN)C(=O)N[C@@H](Cc2nc3ccccc3s2)C(=O)N1)C(=O)O (HELM PEPTIDE1{D.[Pen].F.W.K.[O=C([C@H](Cc1nc2ccccc2s1)N[*:1])[*:2]].C.V}$PEPTIDE1,PEPTIDE1,2:R3-7:R3$$$V2.0)

remaining at 36 h, 80 µM [5]: > 50%
Structure (SMILES): CC(C)[C@H](NC(=O)[C@@H]1CSSC(C)(C)[C@H](NC(=O)[C@@H](N)CC(=O)O)C(=O)N[C@@H](Cc2ccccc2)C(=O)N[C@H](Cc2c[nH]c3ccccc23)C(=O)N[C@@H](CCCN)C(=O)N[C@@H](Cc2ccc(O)cc2)C(=O)N1)C(=O)O [URANTIDE] (HELM PEPTIDE1{D.[Pen].F.[dW].[Orn].Y.C.V}$PEPTIDE1,PEPTIDE1,2:R3-7:R3$$$V2.0)

EC50 [1]: 0.724 nM
Ki [3]: 2 nM
Emax [4]: 85%
Structure (SMILES): CC(C)[C@H](NC(=O)[C@@H]1CSSC(C)(C)[C@H](NC(=O)[C@@H](N)CC(=O)O)C(=O)N[C@@H](Cc2ccccc2)C(=O)N[C@@H](Cc2c[nH]c3ccccc23)C(=O)N[C@@H](CCCCN)C(=O)N[C@@H](Cc2ccc3ccccc3c2)C(=O)N1)C(=O)O (HELM PEPTIDE1{D.[Pen].F.W.K.[O=C([C@H](Cc1ccc2ccccc2c1)N[*:1])[*:2]].C.V}$PEPTIDE1,PEPTIDE1,2:R3-7:R3$$$V2.0)

EC50 [1]: 0.0126 nM
remaining at 16 h, 80 µM [2]: > 70%
Ki [3]: 0.776 nM
Emax [4]: 102%
remaining at 36 h, 80 µM [5]: > 50%
Structure (SMILES): CC(C)[C@H](NC(=O)[C@@H]1CSSC(C)(C)[C@H](NC(=O)[C@@H](N)CC(=O)O)C(=O)N[C@@H](Cc2ccccc2)C(=O)N[C@@H](Cc2c[nH]c3ccccc23)C(=O)N[C@@H](CCCCN)C(=O)N[C@@H](Cc2ccc(Cl)c(Cl)c2)C(=O)N1)C(=O)O (HELM PEPTIDE1{D.[Pen].F.W.K.[O=C([C@H](Cc1ccc(Cl)c(Cl)c1)N[*:1])[*:2]].C.V}$PEPTIDE1,PEPTIDE1,2:R3-7:R3$$$V2.0)

EC50 [1]: 12.9 nM
Ki [3]: 2.24 nM
Emax [4]: 26%
Structure (SMILES): CC(C)[C@H](NC(=O)[C@@H]1CSSC(C)(C)[C@H](NC(=O)[C@@H](N)CC(=O)O)C(=O)N[C@@H](Cc2ccccc2)C(=O)N[C@H](Cc2c[nH]c3ccccc23)C(=O)N[C@@H](CCCN)C(=O)N[C@@H](Cc2ccc(Cl)c(Cl)c2)C(=O)N1)C(=O)O

EC50 [1]: 2.69 nM
Ki [3]: 1.05 nM
Emax [4]: 13%
Structure (SMILES): CC(C)[C@H](NC(=O)[C@@H]1CSSC(C)(C)[C@H](NC(=O)[C@@H](N)CC(=O)O)C(=O)N[C@@H](Cc2ccccc2)C(=O)N[C@H](Cc2c[nH]c3ccccc23)C(=O)N[C@@H](CCCN)C(=O)N[C@@H](Cc2ccc(Cl)cc2)C(=O)N1)C(=O)O

pKb [6]: 8.32
Efficacy [7]: 46.2%
Efficacy [8]: 43.3%
pEC50 [9]: inactive
Emax [4]: 0%
Activity [10]: Active
Structure (SMILES): CC(C)[C@H](NC(=O)[C@@H]1CSSC(C)(C)[C@@H](NC(=O)[C@@H](N)CC(=O)O)C(=O)N[C@@H](Cc2ccccc2)C(=O)N[C@H](Cc2c[nH]c3ccccc23)C(=O)N[C@@H](CCCN)C(=O)N[C@@H](Cc2ccc(O)cc2)C(=O)N1)C(=O)O (HELM PEPTIDE1{D.[CC(C)(S[*:3])[C@@H](N[*:1])C(=O)[*:2]].F.[dW].[Orn].Y.C.V}$PEPTIDE1,PEPTIDE1,2:R3-7:R3$$$V2.0)
